Reference: patent US9085514B2, “Unnatural amino acids comprising a cyclooctynyl or trans-cyclooctenyl analog group and uses thereof” (EMBL, priority 2011, dated 2015)

Key:
Assay type in all cases: cell-based, M. maize
[1] = biological target: T1, tRNA^pyl/pylRS^WT (Methanosarcina mazei, UniProt Q8PWY1); experiment: UAA dependent amber suppression in HeLa cells (NLS-mCherry-^TAGGFP, automated microscope), RS^WT; conditions: HeLa nuclei, 24 h after transfection
T1 construct: expressed in transfected cells; host or cells: HeLa Kyoto cells, plasmid pCMV tRNA^pyl/pylRS^WT
Excerpt: (§1) A single expression plasmid for expression of both tRNA^pyl and the pyrrolysine synthetase pylRS was generated by replacing the tRNA and synthetase of mammalian UAA expression plasmid pSWAN (Liu et al., Nat Methods 2007, 4: 239) with a synthetic gene derived from the plasmid pEVOL tRNA^pyl/pylRS^WT or pEVOL tRNA^pyl/pylRS^AF.
(§2) For mammalian amber suppression studies, a NLS-mCherry-^TAGGFP fusion protein was generated. Due to the nuclear localization sequence (NLS) the expressed protein was targeted to the nucleus. Accordingly, mCherry expression was visible by orange fluorescence in the nucleus signifying the successful transfection of the plasmid. Green fluorescence indicated successful GFP expression due to successful co-transfection of the appropriate tRNA^pyl/pylRS plasmid and suppression of the amber codon in the fused ^TAGGFP.
(§3) UAA concentration dependent GFP expression in the presence of UAA 1, 13, 16 or 17 and RS^WT or RS^AF was analyzed using the following automated microscope procedure.
(§4) HeLa Kyoto cells were grown in DMEM low glucose medium (1 g/l) (Sigma, Munich, Germany) with 10% FBS (Sigma) and 1% L-glutamine. 10−20×10^3 cells per well were seeded in a glass bottom 24-well chamber and cultured overnight. On the next-day, the growth medium was exchanged for fresh one supplied with increasing concentrations of UAA (0, 1, 10, 100, 250, 1000 μM), and the cells were co-transfected (1:1 ratio) with plasmids-carrying NLS-mCherry-^TAGGFP and the respective tRNA^pyl/pylRS pair (RS^WT or RS^AF) using jetPRIME transfection reagent following the manufacturer protocol (Polyplus-transfection. SA, Illkirch, France). 24 h after transfection, cells were stained with Hoechst 33342 (1 μg/ml, 10 min), fixed with 2% paraformaldehyde (15 min, RT) and kept in PBS for imaging. For every UAA concentration, the experiment was repeated twice and in two independently prepared 24 well chambers.
(§5) Microscopy imaging was performed using automated widefield Olympus ScanR microscope (objective UplanApo 20×, 0.70 NA, Hamamatsu Orca R2 CCD camera) in, three channels (Hoechst, GFP, mCherry). For every well at least 25 images (1344×1024 pixels; 433×330 μm, 12-bit) were acquired (exposure times: 30 ms Hoechst, 100 ms mCherry, 100 ms for GFP). Hoechst staining allowed use of the automated focus option of the system. Images were analyzed using the ImageJ macro (http://fiji.sc/wiki/index.php) allowing quantification of GFP fluorescence intensity in the cells showing mCherry fluorescence signal. Hoechst staining was used to threshold and select nuclei. For every detected nucleus, intensities, in the mCherry and GFP channels were quantified. Background intensities in GFP and mCherry channel were measured using one well of each chamber containing cells that were not transfected but stained with Hoechst. Those background values set the threshold to discriminate cells expressing mCherry from the background. For every well the average intensity of GFP (IGFP) in cells positive for GFP and mCherry signals was determined as a measure of successful UAA incorporation. GFP intensities were normalized separately for every UAA based on the maximal observed signal (either for RS^WT or RS^AF).

[2] = biological target: T2, tRNA^pyl/pylRS^AF (Methanosarcina mazei, UniProt Q8PWY1, Y306A/Y384F); experiment: UAA dependent amber suppression in HeLa cells (NLS-mCherry-^TAGGFP, automated microscope), RS^AF; conditions: HeLa nuclei, 24 h after transfection
T2 construct: expressed in transfected cells; host or cells: HeLa Kyoto cells, plasmid pCMV tRNA^pyl/pylRS^AF
Excerpt: as §1, §2, §3, §4, §5

[3] = biological target: T3, mutant pyrrolysyl tRNA synthetase comprising amino acid substitutions Y306A and Y384F (pylRS^AF) (Methanosarcina mazei, UniProt Q8PWY1, Y306A/Y384F); experiment: Expression of GFP^TAG in E. coli in presence of UAA (amber suppression) with tRNA^pyl/pylRS^AF; conditions: 1 mM UAA; for incorporation by RS^AF (GFP fluorescence, SDS-PAGE): FIG. 6; for Expression of GFP^TAG protein: pylRS^WT or pylRS^AF, compared to negative control (FIG. 1)
T3 construct: expressed in transfected cells; host or cells: E. coli Top10, plasmid pEVOL tRNA^pyl/pylRS^AF

[4] = biological target: T4, wildtype pyrrolysyl tRNA synthetase (pylRS^WT) (Methanosarcina mazei, UniProt Q8PWY1); experiment: Expression of GFP^TAG in E. coli in presence of UAA (amber suppression) with tRNA^pyl/pylRS^WT; conditions: 1 mM UAA, FIG. 6
T4 construct: expressed in transfected cells; host or cells: E. coli Top10, plasmid pEVOL tRNA^pyl/pylRS^WT
T4 sequence (Q8PWY1 whole entry): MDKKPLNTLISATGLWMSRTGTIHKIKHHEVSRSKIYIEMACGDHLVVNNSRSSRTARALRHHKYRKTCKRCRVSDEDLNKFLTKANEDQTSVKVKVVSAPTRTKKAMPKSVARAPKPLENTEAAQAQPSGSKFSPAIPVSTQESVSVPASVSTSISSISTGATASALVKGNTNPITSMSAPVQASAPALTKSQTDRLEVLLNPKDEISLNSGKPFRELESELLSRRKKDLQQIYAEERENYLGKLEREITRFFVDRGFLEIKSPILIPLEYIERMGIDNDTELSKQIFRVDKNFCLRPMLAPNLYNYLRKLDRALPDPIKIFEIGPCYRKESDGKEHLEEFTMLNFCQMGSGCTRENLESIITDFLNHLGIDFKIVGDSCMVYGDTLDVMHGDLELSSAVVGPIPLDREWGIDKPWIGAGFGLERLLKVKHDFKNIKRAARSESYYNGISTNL

T1 sequence (Q8PWY1 whole entry): as above
T2 sequence (Q8PWY1 whole entry Y306A/Y384F): as the sequence (Q8PWY1 whole entry) above, with Y306A, Y384F counted along it
T3 sequence (Q8PWY1 whole entry Y306A/Y384F): as the sequence (Q8PWY1 whole entry) above, with Y306A, Y384F counted along it

`N[C@@H](CCCCNC(=O)OC1C#CCCCCC1)C(=O)O` (stereo partly drawn) [compound 1, N-ε-((Cyclooct-2-yn-1-yloxy)carbonyl)-L-lysine] was tested, and the “IGFP (average intensity of GFP, normalized)” value ([1]; 1 μM UAA) was 3.3, the “IGFP (average intensity of GFP, normalized)” value ([1]; 10 μM UAA) was 5.9 and the “IGFP (average intensity of GFP, normalized)” value ([1]; 100 μM UAA) was 27.6. For the same compound, the “IGFP (average intensity of GFP, normalized)” value ([1]; 250 μM UAA) was 59.6, the “IGFP (average intensity of GFP, normalized)” value ([1]; 1000 μM UAA) was 57.5 and the “IGFP (average intensity of GFP, normalized)” value ([2]; 1 μM UAA) was 23.7. The “IGFP (average intensity of GFP, normalized)” value ([2]; 10 μM UAA) was 131.7, the “IGFP (average intensity of GFP, normalized)” value ([2]; 100 μM UAA) was 106.1 and the “IGFP (average intensity of GFP, normalized)” value ([2]; 250 μM UAA) was 203.6. For the same compound, the “IGFP (average intensity of GFP, normalized)” value ([2]; 1000 μM UAA) was 118.4, the “incorporation by RS^AF (GFP fluorescence, SDS-PAGE)” value (shortened to “incorporation by RS^AF”) [3] was “efficient incorporation” and the “Expression of GFP^TAG protein” value [3] was “observed”.

With `N[C@@H](CCCCNC(=O)OCCOC1C#CCCCCC1)C(=O)O` (stereo partly drawn) [compound 2, N-ε-((2-(Cyclooct-2-yn-1-yloxy)ethoxy)carbonyl)-L-lysine] the “Expression of GFP^TAG protein” value [3] was “observed”.

In the case of `N[C@@H](CCCCNC(=O)OC1CC/C=C/CCC1)C(=O)O` (some centres unmarked) [compound 13], the “IGFP (average intensity of GFP, normalized)” value ([1]; 1 μM UAA) is reported as 6.3, the “IGFP (average intensity of GFP, normalized)” value ([1]; 10 μM UAA) is reported as 6.9 and the “IGFP (average intensity of GFP, normalized)” value ([1]; 100 μM UAA) is reported as 15.9. The “IGFP (average intensity of GFP, normalized)” value ([1]; 250 μM UAA) was 22.3, the “IGFP (average intensity of GFP, normalized)” value ([1]; 1000 μM UAA) was 33.2 and the “IGFP (average intensity of GFP, normalized)” value ([2]; 1 μM UAA) was 11.1. For the same compound, the “IGFP (average intensity of GFP, normalized)” value ([2]; 10 μM UAA) was 11.0, the “IGFP (average intensity of GFP, normalized)” value ([2]; 100 μM UAA) was 28.8 and the “IGFP (average intensity of GFP, normalized)” value ([2]; 250 μM UAA) was 36.5. The “IGFP (average intensity of GFP, normalized)” value ([2]; 1000 μM UAA) was 20.6 and the “incorporation by RS^AF” value [3] was “efficient incorporation”.

`N[C@@H](CCCCNC(=O)OC1CC2C=CC1C2)C(=O)O` (some centres unmarked) [compound 16] was tested, and the “IGFP (average intensity of GFP, normalized)” value ([1]; 1 μM UAA) was 1.5, the “IGFP (average intensity of GFP, normalized)” value ([1]; 10 μM UAA) was 6.9 and the “IGFP (average intensity of GFP, normalized)” value ([1]; 100 μM UAA) was 9.4. For the same compound, the “IGFP (average intensity of GFP, normalized)” value ([1]; 250 μM UAA) was 171.6, the “IGFP (average intensity of GFP, normalized)” value ([1]; 1000 μM UAA) was 178.3 and the “Incorporation by RS^WT (GFP^TAG expression)” value [4] was “highest GFP^TAG expression”. For the same compound, the “IGFP (average intensity of GFP, normalized)” value ([2]; 1 μM UAA) was 5.7, the “IGFP (average intensity of GFP, normalized)” value ([2]; 10 μM UAA) was 46.1 and the “IGFP (average intensity of GFP, normalized)” value ([2]; 100 μM UAA) was 114.8. The “IGFP (average intensity of GFP, normalized)” value ([2]; 250 μM UAA) was 100.4, the “IGFP (average intensity of GFP, normalized)” value ([2]; 1000 μM UAA) was 96.9 and the “incorporation by RS^AF” value [3] was “efficient incorporation”.

With `N[C@@H](CCCCNC(=O)OCC1CC2C=CC1C2)C(=O)O` (some centres unmarked) [compound 17] the “IGFP (average intensity of GFP, normalized)” value ([1]; 1 μM UAA) was 4.2, the “IGFP (average intensity of GFP, normalized)” value ([1]; 10 μM UAA) was 2.6 and the “IGFP (average intensity of GFP, normalized)” value ([1]; 100 μM UAA) was 4.3. For the same compound, the “IGFP (average intensity of GFP, normalized)” value ([1]; 250 μM UAA) was 5.7, the “IGFP (average intensity of GFP, normalized)” value ([1]; 1000 μM UAA) was 12.8 and the “IGFP (average intensity of GFP, normalized)” value ([2]; 1 μM UAA) was 10.9. The “IGFP (average intensity of GFP, normalized)” value ([2]; 10 μM UAA) was 57.5, the “IGFP (average intensity of GFP, normalized)” value ([2]; 100 μM UAA) was 76.6 and the “IGFP (average intensity of GFP, normalized)” value ([2]; 250 μM UAA) was 163.5. The “IGFP (average intensity of GFP, normalized)” value ([2]; 1000 μM UAA) was 108.9 and the “incorporation by RS^AF” value [3] was “efficient incorporation”.
